Where two headings read alike, the source gives them in different places.
Experiments:
Format in all cases: cell-based
[1] = tested on: IPSC-derived cardiomyocyte; experiment: Simultaneous voltage and calcium imaging in IPSC-derived cardiomyocytes; settings: 10-test pulse blue stimulation protocol, 3 wells of each concentration, FIG. 41
Description: A 24 objective plate reader of the invention was used to assay a 96-well plate that contained IPSC-derived cardiomyocyte expressing jRGECO1a calcium sensors, CheRiff actuators, and loaded with BeRST1 fluorescent voltage sensitive dye.
The line labeled “stim” indicates pulses of stimulating light transmitted by the plate reader to multiple wells of the 96-well plate, which caused actuation of CheRiff. This led to resulting changes in voltage and calcium ion concentrations in the cells. The resulting changes in voltage were reported by BeRST1, which was energized by red light transmitted from the plate reader. Calcium ion concentration was reported by jRGECO1, which was energized by yellow light. Thus, the plate reader was able to accurately stimulate an actuator and two reporters in multiple wells of a multi-well plate with three separate wavelengths of light. Moreover, the plate reader was able to simultaneously detect the levels of two separate emission wavelengths of light.
The voltage and calcium fluorescence waveforms in FIG. 40 show the average epoch of the 10-test pulse blue stimulation protocol.
Increasing concentration of Nifedipine altered both the voltage action potential waveform and calcium transients until it was completely extinguished at 0.3 uM.

Nav1.8 = molecular target: T1, Nav1.8 (Homo sapiens, UniProt Q9Y5Y9); experiment: Nav1.8 spiking HEK assay (optogenetic, 6-test pulse stimulation protocol)
T1 construct: expressed in transfected cells; host or cells: HEK cells co-expressing CheRiff-GFP and Kir2.1, with BeRST dye as the voltage sensor

Nav1.7 = molecular target: T2, Nav1.7 (Homo sapiens, UniProt Q15858); experiment: Nav1.7 spiking HEK assay
T2 construct: expressed in transfected cells; host or cells: HEK cells co-expressing CheRiff, Kir2.1 (lentiviral transduction) and a voltage reporter
T2 sequence (Q15858 whole entry): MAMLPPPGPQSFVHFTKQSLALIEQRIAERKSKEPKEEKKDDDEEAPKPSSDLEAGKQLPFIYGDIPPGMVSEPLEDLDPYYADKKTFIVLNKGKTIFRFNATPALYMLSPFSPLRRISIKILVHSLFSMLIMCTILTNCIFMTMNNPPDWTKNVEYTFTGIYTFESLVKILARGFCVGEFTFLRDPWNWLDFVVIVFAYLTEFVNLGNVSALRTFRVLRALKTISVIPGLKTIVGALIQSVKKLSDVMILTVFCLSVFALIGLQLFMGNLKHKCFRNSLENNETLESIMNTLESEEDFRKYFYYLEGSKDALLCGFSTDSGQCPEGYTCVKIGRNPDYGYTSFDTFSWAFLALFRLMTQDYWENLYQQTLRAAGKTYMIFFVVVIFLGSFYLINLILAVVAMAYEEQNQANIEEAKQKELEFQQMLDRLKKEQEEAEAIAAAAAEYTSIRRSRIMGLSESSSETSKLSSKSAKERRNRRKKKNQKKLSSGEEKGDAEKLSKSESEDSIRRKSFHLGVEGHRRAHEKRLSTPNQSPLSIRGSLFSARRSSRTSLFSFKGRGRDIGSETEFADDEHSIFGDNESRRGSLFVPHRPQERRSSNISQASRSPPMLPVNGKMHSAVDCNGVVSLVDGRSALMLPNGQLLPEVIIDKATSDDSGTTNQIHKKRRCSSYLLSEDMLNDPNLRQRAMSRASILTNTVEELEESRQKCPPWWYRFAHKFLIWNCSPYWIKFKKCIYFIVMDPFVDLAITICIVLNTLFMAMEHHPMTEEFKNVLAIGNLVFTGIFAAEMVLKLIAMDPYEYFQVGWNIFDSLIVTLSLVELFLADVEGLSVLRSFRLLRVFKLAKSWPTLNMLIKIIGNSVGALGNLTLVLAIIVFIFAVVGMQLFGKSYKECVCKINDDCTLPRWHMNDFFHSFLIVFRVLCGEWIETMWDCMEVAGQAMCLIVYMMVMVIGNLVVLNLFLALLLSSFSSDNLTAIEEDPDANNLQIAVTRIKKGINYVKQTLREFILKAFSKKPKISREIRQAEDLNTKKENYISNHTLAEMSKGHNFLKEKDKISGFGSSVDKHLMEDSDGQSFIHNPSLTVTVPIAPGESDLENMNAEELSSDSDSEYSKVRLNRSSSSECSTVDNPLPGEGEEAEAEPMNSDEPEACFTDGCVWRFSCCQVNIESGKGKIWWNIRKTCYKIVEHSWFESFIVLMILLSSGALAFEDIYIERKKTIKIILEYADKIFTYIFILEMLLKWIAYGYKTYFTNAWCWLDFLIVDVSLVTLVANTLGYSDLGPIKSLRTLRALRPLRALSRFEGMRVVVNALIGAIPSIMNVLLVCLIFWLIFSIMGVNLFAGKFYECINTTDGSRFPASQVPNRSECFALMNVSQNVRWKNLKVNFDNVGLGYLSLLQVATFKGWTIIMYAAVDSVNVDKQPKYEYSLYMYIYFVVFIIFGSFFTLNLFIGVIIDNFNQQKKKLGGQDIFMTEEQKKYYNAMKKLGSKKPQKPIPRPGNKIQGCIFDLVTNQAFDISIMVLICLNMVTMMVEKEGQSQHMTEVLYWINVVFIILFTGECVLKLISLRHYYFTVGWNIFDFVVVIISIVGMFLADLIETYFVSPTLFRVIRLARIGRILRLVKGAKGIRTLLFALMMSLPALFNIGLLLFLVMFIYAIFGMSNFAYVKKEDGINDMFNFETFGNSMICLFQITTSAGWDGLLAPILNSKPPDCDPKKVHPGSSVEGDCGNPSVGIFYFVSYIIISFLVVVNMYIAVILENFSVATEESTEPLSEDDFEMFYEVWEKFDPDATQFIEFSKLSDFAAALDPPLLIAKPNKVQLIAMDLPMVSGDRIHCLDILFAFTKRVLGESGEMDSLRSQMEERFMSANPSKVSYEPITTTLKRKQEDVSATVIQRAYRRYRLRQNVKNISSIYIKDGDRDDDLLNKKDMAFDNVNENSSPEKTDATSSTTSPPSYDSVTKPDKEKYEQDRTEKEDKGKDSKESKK

T1 sequence (Q9Y5Y9 whole entry): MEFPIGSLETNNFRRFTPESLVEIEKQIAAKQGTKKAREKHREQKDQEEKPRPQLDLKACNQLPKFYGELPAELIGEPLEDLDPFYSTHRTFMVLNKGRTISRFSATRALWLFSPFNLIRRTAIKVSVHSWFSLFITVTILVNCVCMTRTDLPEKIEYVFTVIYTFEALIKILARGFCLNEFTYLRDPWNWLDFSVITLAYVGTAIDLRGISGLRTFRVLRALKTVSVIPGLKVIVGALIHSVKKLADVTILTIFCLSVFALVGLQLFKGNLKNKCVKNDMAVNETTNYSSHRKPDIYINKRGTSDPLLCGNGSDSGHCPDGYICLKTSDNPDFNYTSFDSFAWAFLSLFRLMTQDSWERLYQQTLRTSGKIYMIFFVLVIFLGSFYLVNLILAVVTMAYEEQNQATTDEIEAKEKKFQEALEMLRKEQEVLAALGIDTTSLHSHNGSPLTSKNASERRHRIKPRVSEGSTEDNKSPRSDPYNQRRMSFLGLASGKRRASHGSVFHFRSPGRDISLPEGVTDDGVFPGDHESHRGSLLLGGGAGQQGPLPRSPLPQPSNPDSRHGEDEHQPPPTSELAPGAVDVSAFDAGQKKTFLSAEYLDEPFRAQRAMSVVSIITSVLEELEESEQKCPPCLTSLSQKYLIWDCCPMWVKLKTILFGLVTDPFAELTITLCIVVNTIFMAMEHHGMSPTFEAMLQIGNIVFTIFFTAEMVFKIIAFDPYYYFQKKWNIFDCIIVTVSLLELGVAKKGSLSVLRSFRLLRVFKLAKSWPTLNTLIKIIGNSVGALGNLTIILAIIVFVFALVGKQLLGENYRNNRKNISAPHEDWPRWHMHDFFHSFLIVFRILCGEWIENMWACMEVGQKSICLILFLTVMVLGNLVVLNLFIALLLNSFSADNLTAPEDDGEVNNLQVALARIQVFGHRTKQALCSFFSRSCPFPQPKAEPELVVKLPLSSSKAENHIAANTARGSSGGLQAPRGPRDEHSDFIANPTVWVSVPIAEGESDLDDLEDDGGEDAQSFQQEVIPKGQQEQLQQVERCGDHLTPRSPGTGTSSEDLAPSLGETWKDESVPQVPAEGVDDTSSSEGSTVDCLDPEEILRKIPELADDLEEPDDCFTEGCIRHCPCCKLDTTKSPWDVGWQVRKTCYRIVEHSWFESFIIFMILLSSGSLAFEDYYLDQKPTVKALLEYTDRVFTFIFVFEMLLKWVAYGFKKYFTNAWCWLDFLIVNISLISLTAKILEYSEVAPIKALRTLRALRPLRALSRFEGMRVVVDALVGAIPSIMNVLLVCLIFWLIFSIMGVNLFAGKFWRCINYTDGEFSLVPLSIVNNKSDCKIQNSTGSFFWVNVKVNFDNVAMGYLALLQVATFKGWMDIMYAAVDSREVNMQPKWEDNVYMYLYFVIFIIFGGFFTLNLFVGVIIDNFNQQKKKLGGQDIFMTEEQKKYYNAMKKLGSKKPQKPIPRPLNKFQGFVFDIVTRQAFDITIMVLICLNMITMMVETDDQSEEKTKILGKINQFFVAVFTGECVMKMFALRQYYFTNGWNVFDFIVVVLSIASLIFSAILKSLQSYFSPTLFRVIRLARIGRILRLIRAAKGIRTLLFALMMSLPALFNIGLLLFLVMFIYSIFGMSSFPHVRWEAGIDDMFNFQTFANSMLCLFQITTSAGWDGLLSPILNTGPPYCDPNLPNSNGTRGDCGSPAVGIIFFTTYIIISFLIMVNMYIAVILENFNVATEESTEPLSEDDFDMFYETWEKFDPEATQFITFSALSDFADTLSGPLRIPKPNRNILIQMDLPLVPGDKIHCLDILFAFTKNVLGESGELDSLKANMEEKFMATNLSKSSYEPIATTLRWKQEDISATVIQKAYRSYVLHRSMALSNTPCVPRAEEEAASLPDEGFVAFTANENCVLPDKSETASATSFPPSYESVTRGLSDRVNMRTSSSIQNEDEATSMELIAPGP

Q: How did the “concentration at which voltage action potential waveform and calcium transients were completely extinguished” value [1] turn out when `COC(=O)C1=C(C)NC(C)=C(C(=O)OC)C1c1ccccc1[N+](=O)[O-]` [Nifedipine] was run?
A: The value was 0.3 µM.

Q: What does the source list for `CNC(=O)c1ccc(-c2cc(Cl)cc(Cl)c2Cl)c(N)n1` [PF-01247324]?
A: IC50 (Nav1.8; Nav1.8 spiking HEK assay, dose response curves, FIG. 43D, read-out: IC50, block of Nav1.8): 130 nM; selectivity against Nav1.7 (Nav1.8; Nav1.8 versus Nav1.7 spiking HEK assays, FIG. 43D): 40 fold; test pulse preference of block (TP1 versus TP5) (Nav1.8; dose response curves at TP5 and TP1, FIG. 43C): preferentially blocks TP5; test pulse at which blocker is more effective (slope of repolarization) (Nav1.8; representative traces, 6-test pulse protocol, FIG. 43B): more effective after the long pulse (TP5)

Q: `NC1=N[C@H](O)[C@H]2[C@H]3O[C@]4(O)O[C@@H]([C@@H](O)[C@@]2(N1)[C@@H]4O)[C@]3(O)CO` [TTX, Tetrodotoxin] was tested. Which “selectivity for Nav1.7” value (Nav1.7) did it give?
A: The value was “more than 1,000 fold”.

Q: What about the “test pulse preference of block (TP1 versus TP5)” value (Nav1.8) of the same molecule?
A: Its value is “equivalently blocks TP1 and TP5”.

From patent publication US12105023B2, “Multi-well plate readers and methods of their use” (QUELLTX, INC., priority 2021, dated 2024)
